Test results as given in the supplement of paper PMC10627819.

Columns and labels:
S. aureus Newman [1] = assay: fitness (endpoint OD595 vs no drug) (fraction); higher = more growth
Method in brief: (§1)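 Bacterial fitness was scored as optical density at the stationary-phase transition relative to the robust mean of no-drug control wells. Scores are capped at 1. The growth data were OD595 readings every 30 min for 14 h at 37 °C, background-subtracted against the first reading, from 384-well plates inoculated at OD595 0.01 in TSB, LB Lennox or CY.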

S. pneumoniae D39V [2] = assay: as above
Method in brief: as §1

S. aureus DSM 20231 [3] = assay: as above
Method in brief: as §1

S. aureus Newman [4] = assay: Bliss interaction score (quartile over a dose matrix) (fitness difference); higher = more antagonism (negative = synergy)
Method in brief: (§2)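 Combination data were used to infer fitness under each single drug. Fitness is the OD595 at entry into stationary phase divided by the robust mean of the plate's no-drug wells, with a cap of 1. The Bliss score is the observed minus the expected product fitness, summarised by quartiles over technical, biological and donor/recipient replicates.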

B. subtilis 168 = assay: as above
Method in brief: as §2

S. pneumoniae D39V [5] = assay: as above
Method in brief: as §2

S. aureus DSM 20231 [6] = assay: as above
Method in brief: as §2
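For Bliss interaction score (quartile over a dose matrix) in this document: first quartile when negative (synergy) and third quartile when positive (antagonism).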

Cc1ncc([N+](=O)[O-])n1CCO [Metronidazole] + CN[C@H](CC(C)C)C(=O)N[C@H]1C(=O)N[C@@H](CC(N)=O)C(=O)N[C@H]2C(=O)N[C@H]3C(=O)N[C@H](C(=O)N[C@H](C(=O)O)c4cc(O)cc(O)c4-c4cc3ccc4O)[C@H](O)c3ccc(c(Cl)c3)Oc3cc2cc(c3O[C@@H]2O[C@H](CO)[C@@H](O)[C@H](O)[C@H]2O[C@H]2C[C@](C)(N)[C@H](O)[C@H](C)O2)Oc2ccc(cc2Cl)[C@H]1O [Vancomycin]
Conditions	fitness
S. aureus DSM 20231 [3], first compound 0.625 µg/mL, partner 0.1875 µg/mL	≥ 1
S. aureus DSM 20231 [3], first compound 0.625 µg/mL, partner 0.375 µg/mL	≥ 1
S. aureus DSM 20231 [3], first compound 0.625 µg/mL, partner 0.75 µg/mL	≥ 1
S. aureus DSM 20231 [3], first compound 1.25 µg/mL, partner 0.1875 µg/mL	≥ 1
S. aureus DSM 20231 [3], first compound 1.25 µg/mL, partner 0.375 µg/mL	≥ 1
S. aureus DSM 20231 [3], first compound 1.25 µg/mL, partner 0.75 µg/mL	≥ 1
S. aureus DSM 20231 [3], first compound 2.5 µg/mL, partner 0.1875 µg/mL	≥ 1
S. aureus DSM 20231 [3], first compound 2.5 µg/mL, partner 0.375 µg/mL	1
S. aureus DSM 20231 [3], first compound 2.5 µg/mL, partner 0.75 µg/mL	0.995
S. aureus Newman [1], first compound 0.625 µg/mL, partner 0.1875 µg/mL	0.987
S. aureus Newman [1], first compound 0.625 µg/mL, partner 0.375 µg/mL	≥ 1
S. aureus Newman [1], first compound 0.625 µg/mL, partner 0.75 µg/mL	≥ 1
S. aureus Newman [1], first compound 1.25 µg/mL, partner 0.1875 µg/mL	0.968
S. aureus Newman [1], first compound 1.25 µg/mL, partner 0.375 µg/mL	≥ 1
S. aureus Newman [1], first compound 1.25 µg/mL, partner 0.75 µg/mL	0.953
S. aureus Newman [1], first compound 2.5 µg/mL, partner 0.1875 µg/mL	≥ 1
S. aureus Newman [1], first compound 2.5 µg/mL, partner 0.375 µg/mL	≥ 1
S. aureus Newman [1], first compound 2.5 µg/mL, partner 0.75 µg/mL	≥ 1
S. pneumoniae D39V [2], first compound 1.073 µg/mL, partner 0.125 µg/mL	≥ 1
S. pneumoniae D39V [2], first compound 1.073 µg/mL, partner 0.5 µg/mL	0.0194
S. pneumoniae D39V [2], first compound 1.25 µg/mL, partner 0.03125 µg/mL	0.992
S. pneumoniae D39V [2], first compound 1.25 µg/mL, partner 0.0625 µg/mL	0.959
S. pneumoniae D39V [2], first compound 1.25 µg/mL, partner 0.125 µg/mL	0.825
S. pneumoniae D39V [2], first compound 2.145 µg/mL, partner 0.125 µg/mL	0.895
S. pneumoniae D39V [2], first compound 2.145 µg/mL, partner 0.5 µg/mL	0.0439
S. pneumoniae D39V [2], first compound 2.5 µg/mL, partner 0.03125 µg/mL	≥ 1
S. pneumoniae D39V [2], first compound 2.5 µg/mL, partner 0.0625 µg/mL	0.966
S. pneumoniae D39V [2], first compound 2.5 µg/mL, partner 0.125 µg/mL	0.807
S. pneumoniae D39V [2], first compound 4.29 µg/mL, partner 0.125 µg/mL	≥ 1
S. pneumoniae D39V [2], first compound 4.29 µg/mL, partner 0.5 µg/mL	0.108
S. pneumoniae D39V [2], first compound 5 µg/mL, partner 0.03125 µg/mL	0.986
S. pneumoniae D39V [2], first compound 5 µg/mL, partner 0.0625 µg/mL	0.938
S. pneumoniae D39V [2], first compound 5 µg/mL, partner 0.125 µg/mL	0.792

fitness, S. aureus Newman [1], one replicate
Conditions	first compound 0.781 µg/mL	first compound 1.562 µg/mL	first compound 3.124 µg/mL
partner 0.1875 µg/mL	≥ 1	≥ 1	0.995
partner 0.375 µg/mL	≥ 1	0.995	0.99
partner 0.75 µg/mL	≥ 1	0.99	≥ 1

Conditions	Bliss interaction score
B. subtilis 168	0.0651
S. aureus DSM 20231 [6]	0.033
S. aureus Newman [4]	0.0696
S. pneumoniae D39V [5]	0.123

Cc1ncc([N+](=O)[O-])n1CCO [Metronidazole] + Cn1nnc(-c2ccc(-c3ccc(N4C[C@H](CO)OC4=O)cc3F)cn2)n1 [Tedizolid]
fitness
Conditions	partner 0.03125 µg/mL	partner 0.0625 µg/mL	partner 0.125 µg/mL	partner 0.25 µg/mL	partner 0.5 µg/mL
S. aureus DSM 20231 [3], first compound 0.625 µg/mL	–	0.966	0.842	–	–
S. aureus DSM 20231 [3], first compound 1.25 µg/mL	–	0.91	0.839	0.552	–
S. aureus DSM 20231 [3], first compound 2.5 µg/mL	–	0.982	0.851	–	–
S. aureus Newman [1], first compound 0.625 µg/mL	–	0.985	0.875	0.521	–
S. aureus Newman [1], first compound 0.781 µg/mL	–	0.954	0.861	–	–
S. aureus Newman [1], first compound 1.25 µg/mL	–	0.948	0.89	0.509	–
S. aureus Newman [1], first compound 1.562 µg/mL	–	0.951	0.88	–	–
S. aureus Newman [1], first compound 2.5 µg/mL	–	0.93	0.874	–	–
S. aureus Newman [1], first compound 3.124 µg/mL	–	0.957	0.866	–	–
S. pneumoniae D39V [2], first compound 1.073 µg/mL	–	–	0.768	0.856	–
S. pneumoniae D39V [2], first compound 1.25 µg/mL	0.959	0.98	0.831	–	–
S. pneumoniae D39V [2], first compound 2.145 µg/mL	–	–	0.807	0.845	0.255
S. pneumoniae D39V [2], first compound 2.5 µg/mL	0.974	0.998	0.85	–	–
S. pneumoniae D39V [2], first compound 4.29 µg/mL	–	–	0.814	0.838	0.259
S. pneumoniae D39V [2], first compound 5 µg/mL	0.958	0.971	0.85	–	–

Conditions	Bliss interaction score
B. subtilis 168	-0.0352
S. aureus DSM 20231 [6]	0.0997
S. aureus Newman [4]	0.105
S. pneumoniae D39V [5]	-0.0886
